Measurements from article PMC9316855 (Molecules, 2022).

How the values were obtained:
in vitro = conditions: rat, serum, pH 7.4
[1] = 48 h
[2] = 24 h

| Structure (SMILES) | remaining at 24 h (in vitro) | remaining at 48 h (in vitro) | peptide remaining intact in rat serum [1] | peptide remaining intact in human plasma [2] |
| --- | --- | --- | --- | --- |
| CC(C)C[C@H](NC(=O)[C@H](CC(=O)O)NC(=O)CNC(=O)[C@H](CCCNC(=N)N)NC(=O)[C@H](CC(C)C)NC(=O)[C@H](CC(N)=O)NC(=O)[C@@H]1CCCN1C(=O)[C@@H](NC(=O)[C@H](C)NC(=O)[C@H](CC(N)=O)NC(=O)CCOCCOCCOCCOCCOCCN)C(C)C)C(=O)N[C@@H](CCC(N)=O)C(=O)N[C@H](C(=O)N[C@@H](CC(C)C)C(=O)N[C@@H](C)C(=O)N[C@@H](CCC(N)=O)C(=O)N[C@@H](CCCCN)C(=O)N[C@H](C(=O)N[C@@H](C)C(=O)N[C@@H](CCCNC(=N)N)C(=O)N[C@H](C(=O)O)[C@@H](C)O)C(C)C)C(C)C [Compound 20] | ~60% | ~40% | – | – |
| CC(C)C[C@H](NC(=O)[C@H](CC(=O)O)NC(=O)CNC(=O)[C@H](CCCNC(=N)N)NC(=O)[C@H](CC(C)C)NC(=O)[C@H](CC(N)=O)NC(=O)[C@@H]1CCCN1C(=O)[C@@H](NC(=O)[C@H](C)NC(=O)[C@H](CC(N)=O)NC(=O)COCCOCCOCCOCCOCCOCCOCCOCCN)C(C)C)C(=O)N[C@@H](CCC(N)=O)C(=O)N[C@H](C(=O)N[C@@H](CC(C)C)C(=O)N[C@@H](C)C(=O)N[C@@H](CCC(N)=O)C(=O)N[C@@H](CCCCN)C(=O)N[C@H](C(=O)N[C@@H](C)C(=O)N[C@@H](CCCNC(=N)N)C(=O)N[C@H](C(=O)O)[C@@H](C)O)C(C)C)C(C)C [Compound 19] | > 70% | – | > 58% | – |
| CC(C)C[C@H](NC(=O)[C@H](CC(=O)O)NC(=O)CNC(=O)[C@H](CCCNC(=N)N)NC(=O)[C@H](CC(C)C)NC(=O)[C@H](CC(N)=O)NC(=O)[C@@H]1CCCN1C(=O)[C@@H](NC(=O)[C@H](C)NC(=O)[C@H](CC(N)=O)NC(=O)COCCOCCOCCOCCOCCN)C(C)C)C(=O)N[C@@H](CCC(N)=O)C(=O)N[C@H](C(=O)N[C@@H](CC(C)C)C(=O)N[C@@H](C)C(=O)N[C@@H](CCC(N)=O)C(=O)N[C@@H](CCCCN)C(=O)N[C@H](C(=O)N[C@@H](C)C(=O)N[C@@H](CCCNC(=N)N)C(=O)N[C@H](C(=O)O)[C@@H](C)O)C(C)C)C(C)C [Compound 18] | ~60% | ~40% | – | – |
| CC(C)C[C@H](NC(=O)[C@H](CC(=O)O)NC(=O)CNC(=O)[C@H](CCCNC(=N)N)NC(=O)[C@H](CC(C)C)NC(=O)[C@H](CC(N)=O)NC(=O)[C@@H]1CCCN1C(=O)[C@@H](NC(=O)[C@H](CCCCNC(=O)CCCC[C@@H]1SC[C@@H]2NC(=O)N[C@@H]21)NC(=O)[C@H](CC(N)=O)NC(=O)CCOCCOCCOCCOCCOCCOCCOCCOCCOCCOCCOCCOCCOCCOCCOCCOCCOCCOCCOCCOCCNC(=O)CN(CCN(CCN(CC(=O)O)CC(=O)O)CC(=O)O)CC(=O)O)C(C)C)C(=O)N[C@@H](CCC(N)=O)C(=O)N[C@H](C(=O)N[C@@H](CC(C)C)C(=O)N[C@@H](C)C(=O)N[C@@H](CCC(N)=O)C(=O)N[C@@H](CCCCN)C(=O)N[C@H](C(=O)N[C@@H](C)C(=O)N[C@@H](CCCNC(=N)N)C(=O)N[C@H](C(=O)O)[C@@H](C)O)C(C)C)C(C)C [Compound 30] | – | – | – | around 80% |
| CC(C)C[C@H](NC(=O)[C@H](CC(=O)O)NC(=O)CNC(=O)[C@H](CCCNC(=N)N)NC(=O)[C@H](CC(C)C)NC(=O)[C@H](CC(N)=O)NC(=O)[C@@H]1CCCN1C(=O)[C@@H](NC(=O)[C@H](C)NC(=O)[C@H](CC(N)=O)NC(=O)CCOCCOCCOCCOCCOCCOCCOCCOCCOCCOCCOCCOCCOCCOCCOCCOCCOCCOCCOCCOCCN)C(C)C)C(=O)N[C@@H](CCC(N)=O)C(=O)N[C@H](C(=O)N[C@@H](CC(C)C)C(=O)N[C@@H](C)C(=O)N[C@@H](CCC(N)=O)C(=O)N[C@@H](CCCCN)C(=O)N[C@H](C(=O)N[C@@H](C)C(=O)N[C@@H](CCCNC(=N)N)C(=O)N[C@H](C(=O)O)[C@@H](C)O)C(C)C)C(C)C [Compound 23] | ~90% | > 70% | – | – |
| CC(C)C[C@H](NC(=O)[C@H](CC(=O)O)NC(=O)CNC(=O)[C@H](CCCNC(=N)N)NC(=O)[C@H](CC(C)C)NC(=O)[C@H](CC(N)=O)NC(=O)[C@@H]1CCCN1C(=O)[C@@H](NC(=O)[C@H](CCCCNC(=O)CCCC[C@@H]1SC[C@@H]2NC(=O)N[C@@H]21)NC(=O)[C@H](CC(N)=O)NC(=O)COCCOCCNC(=O)CN(CCN(CCN(CC(=O)O)CC(=O)O)CC(=O)O)CC(=O)O)C(C)C)C(=O)N[C@@H](CCC(N)=O)C(=O)N[C@H](C(=O)N[C@@H](CC(C)C)C(=O)N[C@@H](C)C(=O)N[C@@H](CCC(N)=O)C(=O)N[C@@H](CCCCN)C(=O)N[C@H](C(=O)N[C@@H](C)C(=O)N[C@@H](CCCNC(=N)N)C(=O)N[C@H](C(=O)O)[C@@H](C)O)C(C)C)C(C)C [Compound 25] | – | – | – | around 80% |
